# Measurements as given in ChEMBL document CHEMBL1125524, “Adenosine A1 antagonists. 2. Structure-activity relationships on diuretic activities and protective effects against acute renal failure” (J Med Chem, 1992).
# Key:
# Adenosine receptor A1 = molecular target: T1, Adenosine receptor A1 (Cavia porcellus, UniProt P47745)
# T1 sequence (P47745 whole entry): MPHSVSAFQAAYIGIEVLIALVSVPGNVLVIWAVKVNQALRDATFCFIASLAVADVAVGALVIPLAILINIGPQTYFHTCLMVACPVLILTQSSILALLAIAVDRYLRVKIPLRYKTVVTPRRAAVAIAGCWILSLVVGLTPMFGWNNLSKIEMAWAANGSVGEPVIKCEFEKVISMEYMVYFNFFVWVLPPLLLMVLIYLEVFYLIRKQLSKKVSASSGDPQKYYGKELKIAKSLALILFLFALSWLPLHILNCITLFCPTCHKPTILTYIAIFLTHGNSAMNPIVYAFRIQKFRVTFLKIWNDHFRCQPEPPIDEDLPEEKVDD
# Description: Binding affinity against adenosine A1 receptor in guinea pig forebrain membranes using N6-[3H]cyclohexyladenosine as radioligand
# Rattus norvegicus [1] = experiment: Serum creatinine concentration measured after intraperitoneal administration of 1 mg/kg of compound to rats(vehicle 4.41+/-0.17); type: functional
# Rattus norvegicus [2] = experiment: Ratio of urinary excretion value (urinary volume) in treated rats to that in control rats, at a peroral dose of 0.4 mg/Kg; type: functional, Urine
# Rattus norvegicus [3] = experiment: Ratio of urinary excretion value (Na+ concentration) in treated rats to that in control rats, at a peroral dose of 0.4 mg/Kg; type: functional, Urine
# Rattus norvegicus [4] = experiment: Ratio of urinary excretion value (urinary volume) in treated rats to that in control rats, at a peroral dose of 6.25 mg/Kg; type: functional, Urine
# Rattus norvegicus [5] = experiment: Effect on urinary excretion potassium and sodium after oral administration of 0.4 mg/kg to rats(potassium and sodium excretion in control rat is 0.261+/-0.0087); type: functional, Urine
# Rattus norvegicus [6] = experiment: Effect on urinary excretion potassium and sodium after oral administration of 25 mg/kg to rats(potassium and sodium excretion in control rat is 0.252+/-0.022); type: functional, Urine
# Rattus norvegicus [7] = experiment: Urea nitrogen concentration measured after intraperitoneal administration of 1 mg/kg of compound to rats(vehicle 147.9+/-6.1); type: functional
# Rattus norvegicus [8] = experiment: Ratio of urinary excretion value (urinary volume) in treated rats to that in control rats, at a peroral dose of 25 mg/Kg; type: functional, Urine
# Rattus norvegicus [9] = experiment: Percent inhibition of Urea nitrogen by the compound given as ratio of UN value in treated to vehicle treated ones after intraperitoneal administration of 1 mg/kg of compound to rats(vehicle 147.9+/-6.1); type: functional; details: ip
# Rattus norvegicus [10] = experiment: Ratio of sodium ion/potassium ion concentration in treated rats to that in control rats, at a peroral dose of 0.4 mg/Kg; type: functional
# Rattus norvegicus [11] = experiment: Oral diuretic activity was measured after oral administration of 25 mg/kg to rats(control volume is […]+/-[…]); type: functional, Urine
# Rattus norvegicus [12] = experiment: Ratio of urinary excretion value (Na+ concentration) in treated rats to that in control rats, at a peroral dose of 6.25 mg/Kg; type: functional, Urine
# Rattus norvegicus [13] = experiment: Percent inhibition of serum creatinine by the compound given as ratio of Cr value in treated to vehicle treated ones after intraperitoneal administration of 1 mg/kg of compound to rats(vehicle 4.41+/-0.17); type: functional; details: ip
# Adenosine A2 receptor = Adenosine A2 receptor (Rattus norvegicus, UniProt P29276+P30543)
# Rattus norvegicus [14] = experiment: Oral diuretic activity was measured after oral administration of 0.4 mg/kg to rats(control volume is […]+/-[…]); type: functional, Urine
# Rattus norvegicus [15] = experiment: Ratio of urinary excretion value (Na+ concentration) in treated rats to that in control rats, at a peroral dose of 25 mg/Kg; type: functional, Urine
# Rattus norvegicus [16] = experiment: Oral diuretic activity was measured after oral administration of 0.4 mg/kg to rats(control volume is 1.15+/-0.17); type: functional, Urine
# Rattus norvegicus [17] = experiment: Percent inhibition of serum creatinine by the compound given as ratio of Cr value in treated to vehicle treated ones after intraperitoneal administration of 1 mg/kg of compound to rats(vehicle 4.74+/-0.31); type: functional; details: ip
# Rattus norvegicus [18] = experiment: Ratio of urinary excretion value (urinary volume) in treated rats to that in control rats, at a peroral dose of 1.6 mg/Kg; type: functional, Urine
# Rattus norvegicus [19] = experiment: Ratio of sodium ion/potassium ion concentration in treated rats to that in control rats, at a peroral dose of 1.6 mg/Kg; type: functional
# Rattus norvegicus [20] = experiment: Effect on urinary excretion potassium and sodium after oral administration of 1.6 mg/kg to rats(potassium and sodium excretion in control rat is 0.174+/-0.013); type: functional, Urine
# Rattus norvegicus [21] = experiment: Percent inhibition of Urea nitrogen by the compound given as ratio of UN value in treated to vehicle treated ones after intraperitoneal administration of 1 mg/kg of compound to rats(vehicle 138.8+/-7.8); type: functional; details: ip
# Rattus norvegicus [22] = experiment: Serum creatinine concentration measured after intraperitoneal administration of 1 mg/kg of compound to rats(vehicle 4.74+/-0.31); type: functional
# Rattus norvegicus [23] = experiment: Effect on urinary excretion potassium and sodium after oral administration of 0.4 mg/kg to rats(potassium and sodium excretion in control rat is 0.180+/-0.017); type: functional, Urine
# Rattus norvegicus [24] = experiment: Ratio of urinary excretion value (Na+ concentration) in treated rats to that in control rats, at a peroral dose of 1.6 mg/Kg; type: functional, Urine
# Rattus norvegicus [25] = experiment: Serum creatinine concentration measured after intraperitoneal administration of 1 mg/kg of compound to rats(vehicle 4.82+/-0.24); type: functional
# Rattus norvegicus [26] = experiment: Urea nitrogen concentration measured after intraperitoneal administration of 1 mg/kg of compound to rats(vehicle 138.8+/-7.8); type: functional
# Rattus norvegicus [27] = experiment: Urea nitrogen concentration measured after intraperitoneal administration of 1 mg/kg of compound to rats(vehicle 156.2+/-6.1); type: functional
# Rattus norvegicus [28] = experiment: Percent inhibition of serum creatinine by the compound given as ratio of Cr value in treated to vehicle treated ones after intraperitoneal administration of 1 mg/kg of compound to rats(vehicle 4.82+/-0.24); type: functional; details: ip
# Rattus norvegicus [29] = experiment: Oral diuretic activity was measured after oral administration of 1.6 mg/kg to rats(control volume is 0.86+/-0.09); type: functional, Urine
# Rattus norvegicus [30] = experiment: Percent inhibition of Urea nitrogen by the compound given as ratio of UN value in treated to vehicle treated ones after intraperitoneal administration of 1 mg/kg of compound to rats(vehicle 156.2+/-6.1); type: functional; details: ip
# Rattus norvegicus [31] = experiment: Serum creatinine concentration measured after intraperitoneal administration of 1 mg/kg of compound to rats(vehicle 4.91+/-0.10); type: functional
# Rattus norvegicus [32] = experiment: Percent inhibition of Urea nitrogen by the compound given as ratio of UN value in treated to vehicle treated ones after intraperitoneal administration of 1 mg/kg of compound to rats(vehicle 154+/-7); type: functional; details: ip
# Rattus norvegicus [33] = experiment: Urea nitrogen concentration measured after intraperitoneal administration of 1 mg/kg of compound to rats(vehicle 154+/-7); type: functional
# Rattus norvegicus [34] = experiment: Percent inhibition of serum creatinine by the compound given as ratio of Cr value in treated to vehicle treated ones after intraperitoneal administration of 1 mg/kg of compound to rats(vehicle 4.91+/-0.10); type: functional; details: ip
compound,measurement,setting,value
CCCn1c(=O)c2nc(C3CC4C=CC3C4)[nH]c2n(CCC)c1=O (stereo in doubt; 17),Ki,Adenosine receptor A1,4.3 nM
same,Cr,Rattus norvegicus [1],2.08 mg/dL
same,T/C,Rattus norvegicus [2],0.93
same,T/C,Rattus norvegicus [3],0.89
same,T/C,Rattus norvegicus [4],2.56
same,Na,Rattus norvegicus [5],0.233 m equiv 6hr-1 100g-1
same,Na,Rattus norvegicus [6],0.434 m equiv 6hr-1 100g-1
same,UN,Rattus norvegicus [7],80.4 mg/dL
same,T/C,Rattus norvegicus [8],2.06
same,inhibition in vivo at 1 mg/kg,Rattus norvegicus [9],56%
same,Na+/K+,Rattus norvegicus [10],0.98
same,Urine volume,Rattus norvegicus [11],2.47 ml 6hr-1 100g-1
same,T/C,Rattus norvegicus [12],2.51
same,inhibition in vivo at 1 mg/kg,Rattus norvegicus [13],53%
same,Ki,Adenosine A2 receptor,480 nM
same,Urine volume,Rattus norvegicus [14],1.32 ml 6hr-1 100g-1
same,T/C,Rattus norvegicus [15],1.72
CCCCn1c(=O)c2nc(C3CCCC3)[nH]c2n(CCCC)c1=O,Urine volume,Rattus norvegicus [16],1.45 ml 6hr-1 100g-1
same,Ki,Adenosine receptor A1,4.2 nM
same,inhibition in vivo at 1 mg/kg,Rattus norvegicus [17],42%
same,T/C,Rattus norvegicus [2],1.26
same,T/C,Rattus norvegicus [18],1.86
same,T/C,Rattus norvegicus [3],1.61
same,Na+/K+,Rattus norvegicus [19],1.32
same,Na,Rattus norvegicus [20],0.299 m equiv 6hr-1 100g-1
same,inhibition in vivo at 1 mg/kg,Rattus norvegicus [21],56%
same,Cr,Rattus norvegicus [22],2.74 mg/dL
same,Na+/K+,Rattus norvegicus [10],1.23
same,Na,Rattus norvegicus [23],0.309 m equiv 6hr-1 100g-1
same,T/C,Rattus norvegicus [24],1.72
same,Cr,Rattus norvegicus [25],4.03 mg/dL
same,Ki,Adenosine A2 receptor,170 nM
same,UN,Rattus norvegicus [26],75 mg/dL
same,UN,Rattus norvegicus [27],153.6 mg/dL
same,inhibition in vivo at 1 mg/kg,Rattus norvegicus [28],16%
same,Urine volume,Rattus norvegicus [29],1.6 ml 6hr-1 100g-1
same,inhibition in vivo at 1 mg/kg,Rattus norvegicus [30],2%
CCCn1c(=O)[nH]c(=O)c2[nH]c(C3CCCC3)nc21,Ki,Adenosine receptor A1,1400 nM
same,Cr,Rattus norvegicus [31],3.51 mg/dL
same,inhibition in vivo at 1 mg/kg,Rattus norvegicus [32],24%
same,T/C,Rattus norvegicus [4],1.76
same,UN,Rattus norvegicus [33],117 mg/dL
same,T/C,Rattus norvegicus [12],2.07
same,inhibition in vivo at 1 mg/kg,Rattus norvegicus [34],28%
same,Ki,Adenosine A2 receptor,> 100000 nM
